Data published in patent US7608631B2, “4-(3,3-dihalo-allyloxy) phenol derivatives having pesticidal properties” (Syngenta Crop Protection, Inc., priority 2002, dated 2009).

Assays:
Type in all cases: in vivo
Plutella xylostella = assay: Action against Plutella xylostella caterpillars (sprayed cabbage plants); conditions: 72 h, 400 ppm spray on young cabbage plants, 10 caterpillars in the third stage, evaluation 3 days later, read-out: percentage reduction in population and percentage reduction in feeding damage (% activity)
Description: (§1) Young cabbage plants are sprayed with an aqueous emulsion spray mixture comprising 400 ppm of test compound. After the spray-coating has dried, the cabbage plants are populated with 10 caterpillars of Plutella xylostella in the third stage and placed in a plastics container. Evaluation is made 3 days later. The percentage reduction in population and the percentage reduction in feeding damage (% activity) are determined by comparing the number of dead caterpillars and the feeding damage on the treated plants with that on the untreated plants.

Spodoptera littoralis = assay: Action against Spodoptera littoralis (sprayed soybean plants); conditions: 72 h, 400 ppm spray on young soybean plants, 10 caterpillars in the first stage, 3 days later, read-out: percentage reduction in population and percentage reduction in feeding damage (% activity)
Description: Young soybean plants are sprayed with an aqueous emulsion spray mixture comprising 400 ppm of test compound and, after the spray-coating has dried, the plants are populated with 10 caterpillars of Spodoptera littoralis in the first stage and then placed in a plastics container. 3 days later, the percentage reduction in population and the percentage reduction in feeding damage (% activity) are determined by comparing the number of dead caterpillars and the feeding damage on the treated plants with that on untreated plants.

Heliothis virescens = assay: Action against Heliothis virescens caterpillars (sprayed soybean plants); conditions: 144 h, 400 ppm spray on young soybean plants, 10 caterpillars in the first stage, evaluation 6 days later, read-out: percentage reduction in population and percentage reduction in feeding damage (% activity)
Description: as §1, with “soybean” for “cabbage”, “Heliothis virescens” for “Plutella xylostella”, “first” for “third”, “6” for “3”

Measured: inhibition at 400 ppm

CCn1nnc(-c2ccc(OCCCOc3c(Cl)cc(OCC=C(Cl)Cl)cc3Cl)cc2)n1 [Compound 1.4, 5-(4-{3-[2,6-dichloro-4-(3,3-dichloro-allyloxy)-phenoxy]-propoxy}-phenyl)-2-ethyl-2H-tetrazole]
> 80%: all assays above

ClC(Cl)=CCOc1cc(Cl)c(OCCCOc2ccc(-c3noc(Cl)n3)cc2)c(Cl)c1 [Compound 1.16, 5-chloro-3-(4-{3-[2,6-dichloro-4-(3,3-dichloro-allyloxy)-phenoxy]-propoxy}-phenyl)-[1,2,4]oxadiazole]
> 80%: all assays above

ClC(Cl)=CCOc1cc(Cl)c(OCCCOc2ccc(-c3cc(Cl)on3)cc2)c(Cl)c1 [Compound 1.17, 5-chloro-3-(4-{3-[2,6-dichloro-4-(3,3-dichloro-allyloxy)-phenoxy]-propoxy}-phenyl)-isoxazole]
> 80%: all assays above
